Data taken from ChEMBL document CHEMBL4507285, “Data for DCP probe MRL-SYKi” (2021).

Tests used:
[1] = molecular target: Muscarinic acetylcholine receptor M4 (Homo sapiens) (UniProt P08173); conditions: Compound concentration 10.0 uM
[2] = molecular target: Tyrosine-protein kinase SYK (Homo sapiens, UniProt P43405); conditions: Compound concentration 100.0 nM
[3] = molecular target: Serine/threonine-protein kinase 10 (Homo sapiens) (UniProt O94804); conditions: Compound concentration 100.0 nM
[4] = molecular target: Ephrin type-B receptor 2 (Homo sapiens) (UniProt P29323); conditions: Compound concentration 100.0 nM
[5] = molecular target: Muscle, skeletal receptor tyrosine-protein kinase (Homo sapiens) (UniProt O15146); conditions: Compound concentration 100.0 nM
[6] = molecular target: GABA-A receptor; anion channel (Rattus norvegicus) (UniProt O09028+P15431+P18506+P18508+P19969+P20236+P23574+P23576+P28471+P28473+P30191+P62813+P63079+P63138+Q91ZM7+Q9ES14); conditions: Compound concentration 10.0 uM
[7] = tested on: Hepatocyte growth factor receptor (Homo sapiens), P08581 [M1250T]; conditions: Compound concentration 100.0 nM
[8] = molecular target: Homeodomain-interacting protein kinase 3 (Homo sapiens) (UniProt Q9H422); conditions: Compound concentration 100.0 nM
[9] = molecular target: Calcium/calmodulin-dependent protein kinase type II subunit alpha (Homo sapiens) (UniProt Q9UQM7); conditions: Compound concentration 100.0 nM
[10] = molecular target: Serine/threonine-protein kinase ICK (Homo sapiens) (UniProt Q9UPZ9); conditions: Compound concentration 100.0 nM
[11] = molecular target: Fibroblast growth factor receptor 2 (Homo sapiens) (UniProt P21802); conditions: Compound concentration 100.0 nM
[12] = molecular target: Casein kinase I isoform gamma-3 (Homo sapiens) (UniProt Q9Y6M4); conditions: Compound concentration 100.0 nM
[13] = molecular target: Serine/threonine-protein kinase Nek4 (Homo sapiens) (UniProt P51957); conditions: Compound concentration 100.0 nM
[14] = molecular target: Death-associated protein kinase 2 (Homo sapiens) (UniProt Q9UIK4); conditions: Compound concentration 100.0 nM
[15] = molecular target: Dual specificity testis-specific protein kinase 1 (Homo sapiens) (UniProt Q15569); conditions: Compound concentration 100.0 nM
[16] = molecular target: Ribosomal protein S6 kinase alpha-6 (Homo sapiens) (UniProt Q9UK32); conditions: Compound concentration 100.0 nM
[17] = molecular target: Peripheral plasma membrane protein CASK (Homo sapiens) (UniProt O14936); conditions: Compound concentration 100.0 nM
[18] = molecular target: Ribosomal protein S6 kinase alpha-5 (Homo sapiens) (UniProt O75582); conditions: Compound concentration 100.0 nM
[19] = tested on: Tyrosine-protein kinase ABL1 (Homo sapiens), P00519 [H396P]; conditions: Compound concentration 100.0 nM
[20] = molecular target: ALK tyrosine kinase receptor (Homo sapiens) (UniProt Q9UM73); conditions: Compound concentration 100.0 nM
[21] = molecular target: Serine/threonine-protein kinase 26 (Homo sapiens) (UniProt Q9P289); conditions: Compound concentration 100.0 nM
[22] = molecular target: Serine/threonine-protein kinase Sgk3 (Homo sapiens) (UniProt Q96BR1); conditions: Compound concentration 100.0 nM
[23] = molecular target: Serine/threonine-protein kinase TAO2 (Homo sapiens) (UniProt Q9UL54); conditions: Compound concentration 100.0 nM
[24] = tested on: ALK tyrosine kinase receptor (Homo sapiens), Q9UM73 [C1156Y]; conditions: Compound concentration 100.0 nM
[25] = molecular target: Dual specificity mitogen-activated protein kinase kinase 2 (Homo sapiens) (UniProt P36507); conditions: Compound concentration 100.0 nM
[26] = molecular target: 5-hydroxytryptamine receptor 1D (Homo sapiens) (UniProt P28221); conditions: Compound concentration 10.0 uM
[27] = molecular target: Dual specificity mitogen-activated protein kinase kinase 7 (Homo sapiens) (UniProt O14733); conditions: Compound concentration 100.0 nM
[28] = molecular target: Ephrin type-A receptor 1 (Homo sapiens) (UniProt P21709); conditions: Compound concentration 100.0 nM
[29] = molecular target: LIM domain kinase 2 (Homo sapiens) (UniProt P53671); conditions: Compound concentration 100.0 nM
[30] = molecular target: MAP kinase-activated protein kinase 2 (Homo sapiens) (UniProt P49137); conditions: Compound concentration 100.0 nM
[31] = molecular target: Serine/threonine-protein kinase TAO1 (Homo sapiens) (UniProt Q7L7X3); conditions: Compound concentration 100.0 nM
[32] = molecular target: Aurora kinase C (Homo sapiens) (UniProt Q9UQB9); conditions: Compound concentration 100.0 nM
[33] = tested on: Phosphatidylinositol 4,5-bisphosphate 3-kinase catalytic subunit alpha isoform (Homo sapiens), P42336 [E545A]; conditions: Compound concentration 100.0 nM
[34] = molecular target: Mitogen-activated protein kinase kinase kinase kinase 4 (Homo sapiens) (UniProt O95819); conditions: Compound concentration 100.0 nM
[35] = molecular target: Non-receptor tyrosine-protein kinase TYK2 (Homo sapiens) (UniProt P29597); conditions: Compound concentration 100.0 nM
[36] = molecular target: Serine/threonine-protein kinase Nek5 (Homo sapiens) (UniProt Q6P3R8); conditions: Compound concentration 100.0 nM
[37] = molecular target: Serine/threonine-protein kinase PLK4 (Homo sapiens) (UniProt O00444); conditions: Compound concentration 100.0 nM
[38] = tested on: Tyrosine-protein kinase ABL1 (Homo sapiens), P00519 [E255K]; conditions: Compound concentration 100.0 nM
[39] = molecular target: Macrophage colony-stimulating factor 1 receptor (Homo sapiens) (UniProt P07333); conditions: Compound concentration 100.0 nM
[40] = molecular target: Serine/threonine-protein kinase MRCK beta (Homo sapiens) (UniProt Q9Y5S2); conditions: Compound concentration 100.0 nM
[41] = molecular target: Serine/threonine-protein kinase WNK4 (Homo sapiens) (UniProt Q96J92); conditions: Compound concentration 100.0 nM
[42] = molecular target: Dual specificity mitogen-activated protein kinase kinase 3 (Homo sapiens) (UniProt P46734); conditions: Compound concentration 100.0 nM
[43] = tested on: Hepatocyte growth factor receptor (Homo sapiens), P08581 [Y1235D]; conditions: Compound concentration 100.0 nM
[44] = molecular target: Alpha-1D adrenergic receptor (Homo sapiens) (UniProt P25100); conditions: Compound concentration 10.0 uM

MAP kinase-activated protein kinase 2 (Homo sapiens), sequence (P49137 whole entry, looked up): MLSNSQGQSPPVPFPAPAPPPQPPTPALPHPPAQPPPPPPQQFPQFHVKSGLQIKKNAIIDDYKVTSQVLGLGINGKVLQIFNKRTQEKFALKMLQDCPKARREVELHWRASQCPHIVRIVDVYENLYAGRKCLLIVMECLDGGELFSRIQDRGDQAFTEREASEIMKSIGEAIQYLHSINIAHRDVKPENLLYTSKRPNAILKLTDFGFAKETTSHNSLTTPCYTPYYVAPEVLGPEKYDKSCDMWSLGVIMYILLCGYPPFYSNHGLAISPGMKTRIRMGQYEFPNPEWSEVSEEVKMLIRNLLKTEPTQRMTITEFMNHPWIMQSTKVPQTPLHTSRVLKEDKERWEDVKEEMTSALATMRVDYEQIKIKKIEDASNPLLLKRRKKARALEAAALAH
Serine/threonine-protein kinase Nek5 (Homo sapiens), sequence (Q6P3R8 whole entry): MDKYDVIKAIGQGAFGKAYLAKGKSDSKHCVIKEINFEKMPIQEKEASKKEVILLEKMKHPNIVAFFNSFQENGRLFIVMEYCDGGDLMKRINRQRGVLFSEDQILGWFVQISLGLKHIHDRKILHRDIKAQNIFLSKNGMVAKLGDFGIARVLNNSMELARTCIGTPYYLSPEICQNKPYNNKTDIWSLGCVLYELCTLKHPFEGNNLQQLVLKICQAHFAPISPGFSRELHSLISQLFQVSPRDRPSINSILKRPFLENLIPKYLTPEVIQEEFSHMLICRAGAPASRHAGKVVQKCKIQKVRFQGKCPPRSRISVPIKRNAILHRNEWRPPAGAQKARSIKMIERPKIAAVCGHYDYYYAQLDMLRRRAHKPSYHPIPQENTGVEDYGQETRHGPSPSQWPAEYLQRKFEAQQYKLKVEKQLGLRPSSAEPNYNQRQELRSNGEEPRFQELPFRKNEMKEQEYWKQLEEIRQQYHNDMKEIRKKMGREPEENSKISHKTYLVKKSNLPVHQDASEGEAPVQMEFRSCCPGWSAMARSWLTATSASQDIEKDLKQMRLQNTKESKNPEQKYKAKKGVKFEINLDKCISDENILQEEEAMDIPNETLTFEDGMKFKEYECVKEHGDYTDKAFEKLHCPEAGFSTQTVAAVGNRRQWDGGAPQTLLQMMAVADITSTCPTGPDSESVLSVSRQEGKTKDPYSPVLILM
Mitogen-activated protein kinase kinase kinase kinase 4 (Homo sapiens), sequence (O95819 2-1239 limits assumed): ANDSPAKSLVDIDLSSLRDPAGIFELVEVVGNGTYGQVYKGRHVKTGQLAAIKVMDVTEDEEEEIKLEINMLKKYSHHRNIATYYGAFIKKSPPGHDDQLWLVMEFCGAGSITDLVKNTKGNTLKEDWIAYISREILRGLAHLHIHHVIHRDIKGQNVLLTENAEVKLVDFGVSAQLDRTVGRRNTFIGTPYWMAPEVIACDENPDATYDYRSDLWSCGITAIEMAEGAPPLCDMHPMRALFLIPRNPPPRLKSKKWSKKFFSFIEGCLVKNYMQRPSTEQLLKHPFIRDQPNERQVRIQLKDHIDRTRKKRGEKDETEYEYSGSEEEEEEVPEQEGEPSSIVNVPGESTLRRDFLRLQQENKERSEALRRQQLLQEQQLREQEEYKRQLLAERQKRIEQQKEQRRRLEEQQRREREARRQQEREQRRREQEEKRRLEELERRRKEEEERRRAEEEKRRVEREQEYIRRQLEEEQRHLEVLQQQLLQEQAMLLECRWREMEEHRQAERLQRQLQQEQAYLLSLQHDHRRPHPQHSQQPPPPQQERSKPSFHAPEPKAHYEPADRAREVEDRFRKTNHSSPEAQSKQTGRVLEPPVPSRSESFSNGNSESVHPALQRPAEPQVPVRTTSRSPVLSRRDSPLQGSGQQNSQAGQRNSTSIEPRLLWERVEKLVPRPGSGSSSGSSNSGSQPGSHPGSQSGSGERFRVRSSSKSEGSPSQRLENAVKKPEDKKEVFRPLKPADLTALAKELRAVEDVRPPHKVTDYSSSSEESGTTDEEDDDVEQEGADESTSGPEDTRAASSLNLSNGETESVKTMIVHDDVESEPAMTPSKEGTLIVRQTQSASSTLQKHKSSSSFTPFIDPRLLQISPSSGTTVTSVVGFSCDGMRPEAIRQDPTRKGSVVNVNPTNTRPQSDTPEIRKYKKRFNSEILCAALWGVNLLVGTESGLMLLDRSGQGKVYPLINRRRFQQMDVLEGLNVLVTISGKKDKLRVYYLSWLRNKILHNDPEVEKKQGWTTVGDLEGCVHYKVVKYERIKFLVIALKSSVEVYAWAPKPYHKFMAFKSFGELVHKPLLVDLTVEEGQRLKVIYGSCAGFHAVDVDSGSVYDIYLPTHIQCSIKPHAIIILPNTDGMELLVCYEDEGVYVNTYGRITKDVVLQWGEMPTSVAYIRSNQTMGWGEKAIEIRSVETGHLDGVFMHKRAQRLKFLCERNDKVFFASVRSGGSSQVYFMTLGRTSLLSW
Ribosomal protein S6 kinase alpha-5 (Homo sapiens), sequence (O75582 whole entry, looked up): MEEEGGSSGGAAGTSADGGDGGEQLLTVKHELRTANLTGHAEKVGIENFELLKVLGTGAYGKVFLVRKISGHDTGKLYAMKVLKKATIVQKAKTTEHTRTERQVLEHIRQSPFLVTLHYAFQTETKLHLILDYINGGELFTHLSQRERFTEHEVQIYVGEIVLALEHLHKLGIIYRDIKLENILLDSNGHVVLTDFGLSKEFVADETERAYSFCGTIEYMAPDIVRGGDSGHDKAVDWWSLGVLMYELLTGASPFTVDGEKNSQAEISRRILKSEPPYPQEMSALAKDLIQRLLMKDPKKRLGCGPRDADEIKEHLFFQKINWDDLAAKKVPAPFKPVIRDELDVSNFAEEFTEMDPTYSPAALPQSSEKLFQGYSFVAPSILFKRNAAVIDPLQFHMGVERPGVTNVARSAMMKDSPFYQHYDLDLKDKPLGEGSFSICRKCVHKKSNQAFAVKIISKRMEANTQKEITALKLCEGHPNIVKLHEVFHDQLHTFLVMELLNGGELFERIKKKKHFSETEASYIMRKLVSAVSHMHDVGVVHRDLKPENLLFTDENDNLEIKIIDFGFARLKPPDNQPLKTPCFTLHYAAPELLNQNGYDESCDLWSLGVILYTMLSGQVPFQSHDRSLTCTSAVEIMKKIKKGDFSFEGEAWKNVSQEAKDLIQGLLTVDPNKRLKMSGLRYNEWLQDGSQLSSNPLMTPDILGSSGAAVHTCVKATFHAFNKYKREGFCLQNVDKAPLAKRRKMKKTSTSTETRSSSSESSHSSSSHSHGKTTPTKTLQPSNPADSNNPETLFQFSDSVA
Aurora kinase C (Homo sapiens), sequence (Q9UQB9 whole entry, canonical isoform): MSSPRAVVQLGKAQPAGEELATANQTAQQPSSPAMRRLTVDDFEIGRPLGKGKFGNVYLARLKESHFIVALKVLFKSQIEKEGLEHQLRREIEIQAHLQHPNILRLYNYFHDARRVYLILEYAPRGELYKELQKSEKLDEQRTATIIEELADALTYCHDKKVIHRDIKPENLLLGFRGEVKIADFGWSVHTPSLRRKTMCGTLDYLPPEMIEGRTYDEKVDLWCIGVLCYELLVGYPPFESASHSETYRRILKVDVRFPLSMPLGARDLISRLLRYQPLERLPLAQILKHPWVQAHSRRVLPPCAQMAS
LIM domain kinase 2 (Homo sapiens), sequence (P53671 whole entry, looked up, the tested form may be a part): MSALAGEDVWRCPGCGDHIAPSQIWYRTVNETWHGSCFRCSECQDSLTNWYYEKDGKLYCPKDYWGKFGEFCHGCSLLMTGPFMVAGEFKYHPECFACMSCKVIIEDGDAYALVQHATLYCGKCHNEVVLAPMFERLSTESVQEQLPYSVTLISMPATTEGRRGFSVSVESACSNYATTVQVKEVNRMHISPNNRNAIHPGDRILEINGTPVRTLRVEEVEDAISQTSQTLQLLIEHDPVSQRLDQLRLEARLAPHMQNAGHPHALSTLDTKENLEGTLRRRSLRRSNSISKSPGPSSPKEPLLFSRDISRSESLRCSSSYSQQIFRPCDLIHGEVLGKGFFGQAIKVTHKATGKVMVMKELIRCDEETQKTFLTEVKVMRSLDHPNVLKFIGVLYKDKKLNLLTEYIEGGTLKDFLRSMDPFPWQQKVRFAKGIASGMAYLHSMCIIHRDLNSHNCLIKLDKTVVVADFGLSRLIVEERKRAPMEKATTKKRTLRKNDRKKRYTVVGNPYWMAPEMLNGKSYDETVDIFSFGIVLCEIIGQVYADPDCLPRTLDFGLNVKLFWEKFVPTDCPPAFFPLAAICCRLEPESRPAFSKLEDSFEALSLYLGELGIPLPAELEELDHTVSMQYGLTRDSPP
Death-associated protein kinase 2 (Homo sapiens), sequence (Q9UIK4 whole entry, looked up): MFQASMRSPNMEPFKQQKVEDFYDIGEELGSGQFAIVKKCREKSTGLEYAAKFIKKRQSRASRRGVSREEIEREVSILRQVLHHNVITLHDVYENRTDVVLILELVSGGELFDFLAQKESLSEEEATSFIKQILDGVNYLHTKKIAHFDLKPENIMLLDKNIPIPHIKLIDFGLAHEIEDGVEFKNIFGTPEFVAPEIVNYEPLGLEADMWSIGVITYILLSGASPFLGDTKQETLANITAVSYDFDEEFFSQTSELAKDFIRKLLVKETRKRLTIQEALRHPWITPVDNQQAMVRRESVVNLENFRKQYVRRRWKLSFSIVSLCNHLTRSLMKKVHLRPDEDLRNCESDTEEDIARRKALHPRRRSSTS
Calcium/calmodulin-dependent protein kinase type II subunit alpha (Homo sapiens), sequence (Q9UQM7 whole entry): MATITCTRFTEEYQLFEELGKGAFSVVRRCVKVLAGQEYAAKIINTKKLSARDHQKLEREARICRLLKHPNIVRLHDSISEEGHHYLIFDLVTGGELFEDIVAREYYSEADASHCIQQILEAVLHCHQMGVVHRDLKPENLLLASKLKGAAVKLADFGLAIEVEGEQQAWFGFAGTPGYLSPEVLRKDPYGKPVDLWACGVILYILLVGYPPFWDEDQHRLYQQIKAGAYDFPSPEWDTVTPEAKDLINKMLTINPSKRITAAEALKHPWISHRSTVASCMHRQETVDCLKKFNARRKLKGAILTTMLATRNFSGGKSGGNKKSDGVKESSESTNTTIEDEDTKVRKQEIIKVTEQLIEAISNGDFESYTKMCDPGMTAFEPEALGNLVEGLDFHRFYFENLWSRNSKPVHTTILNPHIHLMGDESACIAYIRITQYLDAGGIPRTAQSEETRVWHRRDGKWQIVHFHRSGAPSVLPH

Cc1ccc(-c2cnc([C@@]3(O)CC[C@H](C(=O)O)C(C)(C)C3)s2)cc1Nc1cccc(C(F)(F)F)n1 [MRL-SYKi-NC]
inactive: inhibition [1] 20% | residual activity [2] 90% | residual activity [3] 74.5% | residual activity [4] 100% | residual activity [5] 93.6% | inhibition [6] 20.3% | residual activity [7] 89% | residual activity [8] 88.3% | residual activity [9] 90.8% | residual activity [10] 91.7% | residual activity [11] 100% | residual activity [12] 89.1% | residual activity [13] 84% | residual activity [14] 84.8% | residual activity [15] 95.2% | residual activity [16] 90.8% | residual activity [17] 100% | residual activity [18] 71.4% | residual activity [19] 87.2% | residual activity [20] 100% | residual activity [21] 100% | residual activity [22] 100% | residual activity [23] 84.7% | residual activity [24] 100% | residual activity [25] 87% | inhibition [26] 16.5% | residual activity [27] 77.8% | residual activity [28] 100% | residual activity [29] 100% | residual activity [30] 97.9% | residual activity [31] 89.5% | residual activity [32] 100% | residual activity [33] 74.7% | residual activity [34] 100% | residual activity [35] 100% | residual activity [36] 100% | residual activity [37] 56.5% | residual activity [38] 80.8% | residual activity [39] 100% | residual activity [40] 91.6% | residual activity [42] 90% | residual activity [43] 77.3% | inhibition [44] -2.32%
active: residual activity [41] 31.8%

Cc1cc(Nc2nccc(C)n2)cc(-c2cnc([C@@]3(O)CC[C@H](C(=O)O)C(C)(C)C3)s2)c1 [MRL-SYKi]
active: residual activity [2] 0.9% | residual activity [42] 29.5%
inactive: inhibition [1] 16.7% | residual activity [3] 100% | residual activity [4] 100% | residual activity [5] 100% | inhibition [6] -2.68% | residual activity [7] 93.7% | residual activity [8] 87.3% | residual activity [9] 100% | residual activity [10] 65.4% | residual activity [11] 67.3% | residual activity [12] 99.9% | residual activity [13] 96.6% | residual activity [14] 100% | residual activity [15] 100% | residual activity [16] 100% | residual activity [17] 64.9% | residual activity [18] 100% | residual activity [19] 74.3% | residual activity [20] 93.8% | residual activity [21] 100% | residual activity [22] 100% | residual activity [23] 97.5% | residual activity [24] 100% | residual activity [25] 89.4% | inhibition [26] 2.65% | residual activity [27] 90.3% | residual activity [28] 100% | residual activity [29] 87.2% | residual activity [30] 100% | residual activity [31] 100% | residual activity [32] 100% | residual activity [33] 72.7% | residual activity [34] 100% | residual activity [35] 100% | residual activity [36] 74.2% | residual activity [37] 100% | residual activity [38] 55.1% | residual activity [39] 100% | residual activity [40] 100% | residual activity [41] 100% | residual activity [43] 89.9% | inhibition [44] -4.92%
